Key:
[1] = molecular target: 5-hydroxytryptamine receptor 2A (Homo sapiens, UniProt P28223)
Description: Binding affinity towards serotonin 5-hydroxytryptamine 2A receptor

[2] = molecular target: T1, 5-hydroxytryptamine receptor 2C (Homo sapiens, UniProt P28335)
T1 sequence (P28335 whole entry): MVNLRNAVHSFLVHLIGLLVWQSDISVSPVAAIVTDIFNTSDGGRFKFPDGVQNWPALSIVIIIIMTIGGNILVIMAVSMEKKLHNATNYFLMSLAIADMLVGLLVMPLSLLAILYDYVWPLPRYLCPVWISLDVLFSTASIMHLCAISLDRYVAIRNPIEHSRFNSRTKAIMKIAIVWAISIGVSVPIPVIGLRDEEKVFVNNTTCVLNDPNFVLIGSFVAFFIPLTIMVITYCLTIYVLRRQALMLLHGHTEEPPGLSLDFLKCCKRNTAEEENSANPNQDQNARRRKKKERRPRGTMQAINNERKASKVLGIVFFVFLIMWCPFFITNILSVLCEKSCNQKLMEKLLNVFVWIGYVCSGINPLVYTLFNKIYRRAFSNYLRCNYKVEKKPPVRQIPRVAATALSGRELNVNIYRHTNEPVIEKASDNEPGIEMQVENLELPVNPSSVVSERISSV
Description: Binding affinity towards serotonin 5-hydroxytryptamine 2C receptor

Sequence of 5-hydroxytryptamine receptor 2A (P28223 whole entry): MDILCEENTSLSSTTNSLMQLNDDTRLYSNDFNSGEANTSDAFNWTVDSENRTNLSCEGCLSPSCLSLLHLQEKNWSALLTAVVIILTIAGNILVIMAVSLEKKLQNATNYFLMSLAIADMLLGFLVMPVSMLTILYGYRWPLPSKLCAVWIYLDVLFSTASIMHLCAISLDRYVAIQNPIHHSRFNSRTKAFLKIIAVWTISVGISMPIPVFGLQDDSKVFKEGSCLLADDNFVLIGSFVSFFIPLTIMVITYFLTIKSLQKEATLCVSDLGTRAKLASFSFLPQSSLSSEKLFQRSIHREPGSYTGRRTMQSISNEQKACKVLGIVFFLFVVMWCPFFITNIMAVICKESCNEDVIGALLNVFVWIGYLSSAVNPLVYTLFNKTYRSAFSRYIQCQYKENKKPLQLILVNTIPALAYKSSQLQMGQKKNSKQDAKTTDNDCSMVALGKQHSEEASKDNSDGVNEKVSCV

Compound: COc1ccc2c(c1)CC(CN1CCC(C(=O)c3ccc(F)cc3)CC1)CC2=O (racemic)
- Ki [1]: 17.8 nM
- Ki [2]: 1170 nM

Compound: COc1cc2c(cc1OC)C(=O)CC(CN1CCC(c3noc4cc(F)ccc34)CC1)C2 (stereo in doubt; (-)-9d)
- Ki [1]: 7.24 nM

Compound: O=C1CC(CN2CCC(C(=O)c3ccc(F)cc3)CC2)Cc2ccccc21 (racemic)
- Ki [1]: 13.2 nM
- Ki [2]: 501 nM

Compound: O=C1CC(CN2CCC(c3noc4cc(F)ccc34)CC2)Cc2ccccc21 (stereo in doubt; (-)-7d)
- Ki [1]: 6.31 nM
- Ki [2]: 832 nM

Compound: COc1cc2c(cc1OC)C(=O)CC(CN1CCC(c3noc4cc(F)ccc34)CC1)C2 (racemic)
- Ki [1]: 9.55 nM

Compound: COc1ccccc1N1CCN(CC2CC(=O)c3ccccc3C2)CC1 (racemic)
- Ki [1]: 513 nM

Compound: COc1cc2c(cc1OC)C(=O)CC(CN1CCN(c3ccccn3)CC1)C2 (racemic)
- Ki [1]: 661 nM
- Ki [2]: > 10000 nM

Compound: O=C1CC(CN2CCC(C(=O)c3ccc(F)cc3)CC2)Cc2ccccc21 (stereo in doubt; (+)-7c)
- Ki [1]: 23.4 nM
- Ki [2]: 490 nM

Compound: O=C1CC(CN2CCC(c3noc4cc(F)ccc34)CC2)Cc2ccccc21 (stereo in doubt; (+)-7d)
- Ki [1]: 29.5 nM
- Ki [2]: 661 nM

Compound: COc1ccc2c(c1)CC(CN1CCN(c3ccccn3)CC1)CC2=O (racemic)
- Ki [1]: 692 nM
- Ki [2]: 4570 nM

Compound: COc1cc2c(cc1OC)C(=O)CC(CN1CCN(c3ccccc3OC)CC1)C2 (racemic)
- Ki [1]: 2340 nM
- Ki [2]: > 10000 nM

Compound: O=C1CC(CN2CCC(C(=O)c3ccc(F)cc3)CC2)Cc2ccccc21 (stereo in doubt; (-)-7c)
- Ki [1]: 5.89 nM
- Ki [2]: 776 nM

Compound: COc1ccc2c(c1)CC(CN1CCC(c3noc4cc(F)ccc34)CC1)CC2=O (single isomer, unassigned; (+))
- Ki [1]: 1.48 nM
- Ki [2]: 513 nM

Compound: COc1cc2c(cc1OC)C(=O)CC(CN1CCC(C(=O)c3ccc(F)cc3)CC1)C2 (single isomer, unassigned; (-))
- Ki [1]: 5.62 nM
- Ki [2]: 166 nM

Compound: COc1ccc2c(c1)CC(CN1CCC(c3noc4cc(F)ccc34)CC1)CC2=O (racemic)
- Ki [2]: 1620 nM

Compound: COc1ccc2c(c1)CC(CN1CCN(c3ccccc3OC)CC1)CC2=O (racemic)
- Ki [1]: 891 nM
- Ki [2]: 46.8 nM

Compound: O=C1CC(CN2CCN(c3ccccn3)CC2)Cc2ccccc21 (racemic)
- Ki [1]: 977 nM
- Ki [2]: 3310 nM

Compound: O=C1CC(CN2CCC(c3noc4cc(F)ccc34)CC2)Cc2ccccc21 (racemic)
- Ki [1]: 2.69 nM
- Ki [2]: 129 nM

Compound: COc1ccc2c(c1)CC(CN1CCC(c3noc4cc(F)ccc34)CC1)CC2=O (single isomer, unassigned; (-))
- Ki [1]: 26.3 nM
- Ki [2]: 832 nM

Compound: COc1cc2c(cc1OC)C(=O)CC(CN1CCC(C(=O)c3ccc(F)cc3)CC1)C2 (single isomer, unassigned; (+))
- Ki [1]: 43.7 nM
- Ki [2]: 575 nM

Compound: COc1ccc2c(c1)CC(CN1CCC(C(=O)c3ccc(F)cc3)CC1)CC2=O (single isomer, unassigned; (-))
- Ki [1]: 16.2 nM
- Ki [2]: 977 nM

Compound: COc1cc2c(cc1OC)C(=O)CC(CN1CCC(C(=O)c3ccc(F)cc3)CC1)C2 (racemic)
- Ki [1]: 6.03 nM
- Ki [2]: 83.2 nM

Compound: COc1ccc2c(c1)CC(CN1CCC(C(=O)c3ccc(F)cc3)CC1)CC2=O (single isomer, unassigned; (+))
- Ki [1]: 11.2 nM
- Ki [2]: 1100 nM
